This is an account of results in US10206398B2, “Five-membered C-N-attached aryl sulphide and aryl sulphoxide derivatives as pesticides” (BAYER CROPSCIENCE AKTIENGESELLSCHAFT, priority 2014, dated 2019).

A short description of data set [1]: log P determination by HPLC on reversed-phase columns (C 18), analogous to OECD Guideline 117. Conditions: for logP[a]: method [a]; for logP[b]: method [b]; for chromatographic logP: reversed-phase HPLC column (C 18). The class given is physicochemical. Put shortly: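 Reversed-phase C18 HPLC per OECD 117, two conditions: [a] pH 2.7, 0.1% formic acid water/acetonitrile, log P(HCOOH); [b] pH 7.8, 0.001 M ammonium hydrogencarbonate/acetonitrile, log P(neutral). Both use a 10–95% acetonitrile gradient; values are interpolated from retention times against C3–C16 unbranched alkan-2-ones.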

The next data set concerns Meloidogyne incognita. Put plainly: Meloidogyne incognita - test. In kind it is in vivo. The following applies: 20 ppm, lettuce, after 14 days. As to the method: 2. Meloidogyne incognita—Test Solvent: 125.0 parts by weight of acetone To produce a suitable preparation of active compound, 1 part by weight of active compound is mixed with the stated amount of solvent and the concentrate is diluted with water to the desired concentration. Vessels are filled with sand, active compound solution, an egg/larvae suspension of the southern root-knot nematode (Meloidogyne incognita) and lettuce seeds. The lettuce seeds germinate and the plants develop. The galls develop on the roots. After 14 days, the nematicidal efficacy in % is determined by the formation of galls. 100% means that no galls were found; 0% means that the number of galls on the treated plants corresponds to the untreated control.

Another data set concerns Phaedon cochleariae. The experiment in a line: Phaedon cochleariae - spray test. In kind it is in vivo. Conditions: 500 g/ha, Chinese cabbage leaf discs, after 7 days. On the procedure:
4. Phaedon cochleariae—Spray Test
Solvent: 78.0 parts by weight of acetone
• 1.5 parts by weight of dimethylformamide Emulsifier: alkylaryl polyglycol ether
To produce a suitable preparation of active compound, 1 part by weight of active compound is dissolved using the stated parts by weight of solvent and made up with water containing an emulsifier concentration of 1000 ppm until the desired concentration is attained. To produce further test concentrations, the preparation is diluted with emulsifier-containing water.
After 7 days, the efficacy in % is determined. 100% means that all the beetle larvae have been killed; 0% means that no beetle larvae have been killed.

The subject of the next data set is Tetranychus urticae. The experiment in a line: Tetranychus urticae - spray test, OP-resistant (bean leaf discs, 6 days). In kind it is in vivo. The following applies: after 6 days; for pest or weed control at 500 g/ha: Tetranychus urticae, foliar, 144 h, read-out: efficacy (spider mites killed). In short, it runs like this: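 Bean leaf discs carrying all stages of OP-resistant Tetranychus urticae were sprayed with compound formulated in acetone/DMF and diluted in water with 1000 ppm emulsifier. Mortality was scored after 6 days as % efficacy, where 100% means all mites were killed.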

For the next data set, the system named is Boophilus microplus. Put plainly: Boophilus microplus - injection test. In kind it is in vivo. The following applies: 20 μg/animal, injection into engorged adult female cattle ticks, assessed after 7 days. On the procedure:
1. Boophilus microplus—Injection Test
Solvent: dimethyl sulphoxide
To produce a suitable preparation of active compound, 10 mg of active compound are mixed with 0.5 ml of solvent and the concentrate is diluted with solvent to the desired concentration.
1 μl of the active compound solution is injected into the abdomen of 5 engorged adult female cattle ticks (Boophilus microplus). The animals are transferred into dishes and kept in a climate-controlled room.
Efficacy is assessed after 7 days by laying of fertile eggs. Eggs which are not visibly fertile are stored in a climate-controlled cabinet until the larvae hatch after about 42 days. An efficacy of 100% means that none of the ticks has laid any fertile eggs; 0% means that all the eggs are fertile.

The mark [2] stands for this setting: pH 2.7, HPLC, acidic range, pH 2.7, 0.1% aqueous formic acid and acetonitrile, read-out: log P(HCOOH).
Where [3] appears, read: pH 2.7, method [a], read-out: logP[a].
The mark [4] stands for this setting: pH 7.8, HPLC, neutral range, pH 7.8, 0.001 molar aqueous ammonium hydrogencarbonate and acetonitrile, read-out: log P(neutral).
Setting [5] is: pH 7.8, method [b], read-out: logP[b].

Each structure is given as a SMILES string. Read-outs that look alike come from different tables or passages of the source.

As to `Cc1cc(Cl)c(N2C(=O)CN(C(=O)Nc3cccc(CC(F)(F)F)c3)C2=O)cc1[S+]([O-])CC(F)(F)F` (racemic) [compound 71], in data set [1], the “logP[a]” value was 3.68 and the “logP[b]” value is recorded as 3.64. Moreover, the “nematicidal efficacy (formation of galls)” value (from here on “nematicidal efficacy”) in the data set on Meloidogyne incognita was 90%. For the same molecule, the “efficacy (beetle larvae killed)” value in the data set with Phaedon cochleariae is on record as 100%. The “efficacy (spider mites killed)” value in the data set on Tetranychus urticae (500 g/ha) is on record as 100%.
For the molecule `Cc1cc(C)c([S+]([O-])CC(F)(F)F)cc1N1C(=O)CN(C(=O)Nc2ccc(F)cc2)C1=O` (racemic) [compound 99], in data set [1], the “logP[a]” value is recorded as 3.01 and the “logP[b]” value is reported as 2.92. In addition, the “efficacy (laying of fertile eggs)” value with Boophilus microplus stood at 100%. Also, the “nematicidal efficacy” value in the data set with Meloidogyne incognita is recorded as 90%. The “efficacy (spider mites killed)” value in the data set with Tetranychus urticae (100 g/ha) worked out at 90%.
In the case of `Cc1cc(C)c([S+]([O-])CC(F)(F)F)cc1N1C(=O)CN(C(=O)Nc2ccccn2)C1=O` (racemic) [compound 118], in data set [1], the “logP[a]” value was 2.46 and the “logP[b]” value was 2.50. Further, the “efficacy (beetle larvae killed)” value in the data set on Phaedon cochleariae came to 100%.
Turning to `Cc1cc(F)c(N2C(=O)CN(C(=O)NC3CC3)C2=O)cc1SCC(F)(F)F` [Ex. No. 1, N-Cyclopropyl-3-[2-fluoro-4-methyl-5-(2,2,2-trifluoroethylsulphanyl)phenyl]-2,4-dioxoimidazolidine-1-carboxamide], the chromatographic logP in data set [1] (setting [2]) came out at 3.07; in data set [1] (setting [3]) it was 3.07; in data set [1] (setting [4]) it was 2.98; in data set [1] (setting [5]) it was 2.98. The “efficacy (laying of fertile eggs)” value in the data set with Boophilus microplus came to 100%. The “nematicidal efficacy” value in the data set on Meloidogyne incognita stood at 90%. The pest or weed control at 500 g/ha in the data set with Tetranychus urticae (500 g/ha) came to 100%.
Regarding `Cc1cc(F)c(N2C(=O)CN(C(=O)NC(C)C)C2=O)cc1SCC(F)(F)F` [Ex. No. 7], in data set [1], the “logP[a]” value is 3.34 and the “logP[b]” value was found to be 3.29. For the same molecule, the “efficacy (laying of fertile eggs)” value with Boophilus microplus came out at 100%. In addition, the “nematicidal efficacy” value in the data set on Meloidogyne incognita turned out to be 90%. In addition, the “efficacy (spider mites killed)” value in the data set on Tetranychus urticae (500 g/ha) came to 100%.
For the molecule `Cc1cc(F)c(N2C(=O)CN(C(=O)NCC(F)(F)F)C2=O)cc1SCC(F)(F)F` [Ex. No. 30, 3-[2-Fluoro-4-methyl-5-(2,2,2-trifluoroethylsulphanyl)phenyl]-2,4-dioxo-N-(2,2,2-trifluoroethyl)imidazolidine-1-carboxamide], the chromatographic logP in data set [1] (setting [2]) was 3.28; in data set [1] (setting [3]) it was 3.28; in data set [1] (setting [4]), 3.21; in data set [1] (setting [5]) it was 3.21. The “efficacy (beetle larvae killed)” value in the data set with Phaedon cochleariae came out at 83%. Besides, the pest or weed control at 500 g/ha with Tetranychus urticae (500 g/ha) turned out to be 90%.
In the case of `Cc1cc(F)c(N2C(=O)CN(C(=O)NCC(F)(F)F)C2=O)cc1[S+]([O-])CC(F)(F)F` (stereo not shown) [Ex. No. 36, 3-[2-Fluoro-4-methyl-5-(2,2,2-trifluoroethylsulphinyl)phenyl]-2,4-dioxo-N-(2,2,2-trifluoroethyl)imidazolidine-1-carboxamide], the chromatographic logP in data set [1] (setting [2]) was 2.46; in data set [1] (setting [3]) it was 2.46; in data set [1] (setting [4]), 2.42; in data set [1] (setting [5]) it was 2.41. In addition, the “efficacy (laying of fertile eggs)” value in the data set on Boophilus microplus was found to be 100%. Besides, the “nematicidal efficacy” value in the data set on Meloidogyne incognita is given as 90%. Further, the pest or weed control at 500 g/ha in the data set on Tetranychus urticae (500 g/ha) was found to be 100%.
As for `CCNC(=O)N1CC(=O)N(c2cc(SCC(F)(F)F)c(C)cc2F)C1=O` [compound 6], in data set [1], the “logP[a]” value was 2.98 and the “logP[b]” value worked out at 2.93. The “efficacy (laying of fertile eggs)” value with Boophilus microplus is recorded as 100%. In addition, in the data set on Meloidogyne incognita, the “nematicidal efficacy” value is reported as 90%. Besides, the “efficacy (spider mites killed)” value in the data set with Tetranychus urticae (500 g/ha) is 100%.
For the molecule `CCNC(=O)N1CC(=O)N(c2cc([S+]([O-])CC(F)(F)F)c(C)cc2F)C1=O` (stereo not shown) [compound 9], in data set [1], the “logP[a]” value was 2.05 and the “logP[b]” value is recorded as 2.05. Also, the “efficacy (laying of fertile eggs)” value with Boophilus microplus is on record as 100%. The “nematicidal efficacy” value in the data set on Meloidogyne incognita is on record as 100%. The “efficacy (spider mites killed)” value in the data set with Tetranychus urticae (500 g/ha) was 100%.
Consider `Cc1cc(F)c(N2C(=O)CN(C(=O)NC(C)C)C2=O)cc1[S+]([O-])CC(F)(F)F` (stereo not shown) [compound 10], for which, in data set [1], the “logP[a]” value stood at 2.40 and the “logP[b]” value is recorded as 2.38. Further, the “efficacy (laying of fertile eggs)” value in the data set on Boophilus microplus was determined as 100%. In addition, the “nematicidal efficacy” value with Meloidogyne incognita is reported as 100%. Besides, the “efficacy (spider mites killed)” value in the data set with Tetranychus urticae (500 g/ha) came out at 100%.
As for `Cc1cc(F)c(N2C(=O)CN(C(=O)NCc3ccccc3)C2=O)cc1[S+]([O-])CC(F)(F)F` (stereo not shown) [compound 21], in data set [1], the “logP[a]” value is 2.77 and the “logP[b]” value is on record as 2.71. Also, the “efficacy (laying of fertile eggs)” value in the data set with Boophilus microplus is reported as 100%. In addition, the “nematicidal efficacy” value in the data set with Meloidogyne incognita was 90%. The “efficacy (spider mites killed)” value in the data set on Tetranychus urticae (500 g/ha) amounted to 100%.
For the molecule `Cc1cc(F)c(N2C(=O)CN(C(=O)Nc3cccc(CC(F)(F)F)c3)C2=O)cc1SCC(F)(F)F` [compound 37], in data set [1], the “logP[a]” value amounted to 4.32 and the “logP[b]” value is listed as 4.24. Moreover, in the data set with Phaedon cochleariae, the “efficacy (beetle larvae killed)” value is recorded as 83%. For the same molecule, in the data set on Tetranychus urticae (500 g/ha), the “efficacy (spider mites killed)” value was determined as 100%.
In the same order, the values of `Cc1cc(C)c(N2C(=O)CN(C(=O)NCC(F)(F)F)C2=O)cc1SCC(F)(F)F` [compound 38] are 3.46, 3.33, 100% and 100%.
On the same counts, the results for `Cc1cc(F)c(N2C(=O)CN(C(=O)Nc3ccc(F)cc3)C2=O)cc1SCC(F)(F)F` [compound 39] are 3.85, 3.75, 100% and 100%.
Take `Cc1cc(F)c(N2C(=O)CN(C(=O)Nc3cccc(F)c3)C2=O)cc1SCC(F)(F)F` [compound 42]: in data set [1], the “logP[a]” value was determined as 3.90 and the “logP[b]” value was 3.94. Also, the “efficacy (laying of fertile eggs)” value in the data set on Boophilus microplus is listed as 100%. Moreover, the “nematicidal efficacy” value with Meloidogyne incognita came out at 90%. Besides, the “efficacy (spider mites killed)” value with Tetranychus urticae (500 g/ha) amounted to 100%.
In the case of `CCC(C)NC(=O)N1CC(=O)N(c2cc(SCC(F)(F)F)c(C)cc2F)C1=O` (stereo not shown) [compound 44], in data set [1], the “logP[a]” value came to 3.64 and the “logP[b]” value was 3.58. The “efficacy (beetle larvae killed)” value with Phaedon cochleariae was found to be 100%. Also, in the data set with Tetranychus urticae (500 g/ha), the “efficacy (spider mites killed)” value is given as 100%.
As to `CCC(C)NC(=O)N1CC(=O)N(c2cc([S+]([O-])CC(F)(F)F)c(C)cc2F)C1=O` (stereo not shown) [compound 47], in data set [1], the “logP[a]” value stood at 2.70 and the “logP[b]” value is on record as 2.65. Besides, in the data set on Boophilus microplus, the “efficacy (laying of fertile eggs)” value is listed as 100%. For the same molecule, in the data set on Meloidogyne incognita, the “nematicidal efficacy” value turned out to be 100%. Besides, in the data set with Tetranychus urticae (500 g/ha), the “efficacy (spider mites killed)” value came to 100%.
Regarding `Cc1cc(Cl)c(N2C(=O)CN(C(=O)NCC(F)(F)F)C2=O)cc1SCC(F)(F)F` [compound 53], in data set [1], the “logP[a]” value was 3.51 and the “logP[b]” value came to 3.40. Besides, the “efficacy (beetle larvae killed)” value with Phaedon cochleariae was 83%. Further, the “efficacy (spider mites killed)” value in the data set with Tetranychus urticae (500 g/ha) is given as 100%.
In the case of `CCC(C)(C)NC(=O)N1CC(=O)N(c2cc(SCC(F)(F)F)c(C)cc2F)C1=O` [compound 101], in data set [1], the “logP[a]” value stood at 4.09 and the “logP[b]” value came out at 3.96. For the same molecule, the “nematicidal efficacy” value in the data set on Meloidogyne incognita was found to be 90%. Besides, the “efficacy (beetle larvae killed)” value in the data set with Phaedon cochleariae was 83%. In addition, in the data set on Tetranychus urticae (500 g/ha), the “efficacy (spider mites killed)” value is listed as 100%.
`O=C(NCC(F)(F)F)N1CC(=O)N(c2cc(SCC(F)(F)F)c(Cl)cc2Cl)C1=O` [compound 106]: in data set [1], the “logP[a]” value was determined as 3.5 and the “logP[b]” value came out at 3.53. The “efficacy (beetle larvae killed)” value with Phaedon cochleariae came to 83%. The “efficacy (spider mites killed)” value in the data set on Tetranychus urticae (500 g/ha) is given as 100%.
